Laboratory results published in PMC4535766, “Antiprotozoal Activity Profiling of Approved Drugs: A Starting Point toward Drug Repositioning” (PLoS ONE, 2015).
Counter-ions that a name gives are not always drawn. Like-named read-outs stand apart in the source and are kept apart here.

Columns and labels:
[1] = tested on: T. cruzi, strain Tulahuen C4, intracellular amastigotes; test: microbe, parasite or virus in culture; conditions: Trypanosoma cruzi, TULAHUEN
Method: (§1) Drug stock solutions (10mg/ml) were in DMSO (100%). […] Selectivity index (SI) was calculated as IC50 L6 cells/IC50 parasite.

in vitro = conditions: rat
Method: as §1

[2] = tested on: intracellular amastigotes of L. donovani strain MHOM-ET-67/L82; test: Activity against Leishmania donovani intracellular amastigotes in mouse peritoneal macrophages; conditions: Leishmania donovani, Peritoneal macrophage, in Mus musculus
Method: After 24 h 1.2 x 10^5 amastigote L. donovani in 100 μl were added. The amastigotes were taken from an axenic culture grown at pH 5.4. Four hours later, the medium containing free amastigote forms was removed and replaced by fresh medium. The next day the medium was replaced by medium with or without a serial drug dilution of seven 3-fold dilution steps covering a range from 30 to 0.04 μg/ml. Parasite growth in the presence of the drug was compared to control wells. After 96 h of incubation, the medium was removed and the slides fixed with methanol for 10 min followed by staining with a 10% Giemsa solution. Infected and non-infected macrophages were counted for the control cultures and those exposed to the serial drug dilutions. The infection rates were determined. The results were expressed as a percentage reduction in parasite burden compared to control wells, and the IC50 was calculated by linear regression analysis. The collection of mouse peritoneal macrophages was done at the Swiss Tropical and Public Health Institute (Basel) according to the rules and regulations for the protection of animal rights ("Tierschutzverordnung") of the Swiss "Bundesamt für Veterinärwesen".

[3] = Cytotoxicity on macrophages infected with L. donovani; assay type: cell-based, mouse; conditions: mouse
[4] = tested on: T. b. rhodesiense strain STIB 900, trypomastigotes; test: In vitro activity against T. b. rhodesiense, serial drug dilution assay; conditions: for IC50: Trypanosoma brucei; for selectivity ratio: rat
Method: as §1

[5] = tested on: axenic amastigotes of L. donovani, strain MHOM-ET-67/L82; test: In vitro activity against L. donovani axenic amastigotes, serial drug dilution assay; assay type: cell-based, Leishmania donovani; conditions: Leishmania donovani
Method: as §1

P. falciparum strain K1 = test: In vitro activity against P. falciparum, serial drug dilution assay; conditions: for Activity against P. falciparum (in words): in vitro; for selectivity ratio: rat
Method: as §1

[6] = 96 h, read-out: IC50 L. don. intracell
[7] = macrophages infected with L. donovani, read-out: IC50 Cytotox. mac.inf.
[8] = axenic amastigotes, strain MHOM-ET-67/L82, means of two independent assays, read-out: IC50 L. don. axen.
[9] = Plasmodium falciparum, K1, read-out: IC50 P. falc. K1
[10] = read-out: L. don. intracell IC50
[11] = infected macrophages, read-out: Cytotox. mac.inf. IC50
[12] = L6 cells, IC50 Cytotox. L6, L6 cells, means of two independent assays
[13] = mouse peritoneal macrophages infected with L. donovani, macrophages infected with L. donovani, read-out: IC50 Cytotox. mac.inf.

Row | SMILES | IC50 ([1]; read-out: IC50 T. cruzi) [µM] | IC50 (in vitro; IC50 Cytotox. L6) [µM] | IC50 [2, 6] [µM] | IC50 at 96 h [3, 7] [µM] | IC50 ([4]; read-out: IC50 T. b. rhod.) [µM] | IC50 [5, 8] [µM] | IC50 (P. falciparum strain K1; [9]) [µM] | other results
1 | O=C(O)COCCN1CCN(C(c2ccccc2)c2ccc(Cl)cc2)CC1 (centres unmarked) [Cetirizine (Hydrochloride), Cetirizine] | 120 | 149 | > 70.5 | > 70.5 | 99.5 | 186 | 20 | –
2 | Nc1nc(N)c2nc(-c3ccccc3)c(N)nc2n1 [Triamterene] | 22.7 | 8.53 | > 11.8 | > 11.8 | 21.7 | 307 | 17.2 | –
3 | OCCN1CCN(CCCN2c3ccccc3Sc3ccc(C(F)(F)F)cc32)CC1 [Fluphenazine] | – | 11.5 | – | 22.9 | – | – | – | Activity against P. falciparum (in words) (P. falciparum strain K1): micromolar range
4 | CC(C)CN(C[C@@H](O)[C@H](Cc1ccccc1)NC(=O)O[C@H]1CO[C@H]2OCC[C@H]21)S(=O)(=O)c1ccc(N)cc1 [Darunavir] | 92.2 | – | > 54.8 | – | 31.4 | 125 | 46.9 | –
5 | CC(=O)N1CCN(c2ccc(OCC3COC(Cn4ccnc4)(c4ccc(Cl)cc4Cl)O3)cc2)CC1 (centres unmarked) [Ketoconazole] | 0.27 | – | > 18.8 | – | 33.1 | 38.8 | – | IC50 (in vitro): 51 µM
6 | CCN(CC)CCCC(C)Nc1ccnc2cc(Cl)ccc12 (centres unmarked) [Chloroquine (Diphosphate), Chloroquine] | – | – | – | – | 3.81 | – | 0.17 | IC50 ([1]; read-out: T. cruzi IC50): 99.2 µM; IC50 (in vitro): 50.6 µM; IC50 [2, 10]: > 58.9 µM; IC50 at 96 h [3, 11]: > 58.9 µM; selectivity ratio [4]: 13; IC50 ([5]; read-out: L. don. axen. IC50): > 196 µM; selectivity ratio (P. falciparum strain K1): 298; IC50 (P. falciparum strain K1; read-out: IC50 P. falc. K1): 0.13 µM
7 | Cc1oncc1C(=O)Nc1ccc(C(F)(F)F)cc1 [Leflunomide] | 152 | 124 | > 111 | > 111 | 213 | 21.8 | > 18.5 | –
8 | COc1cc(C)c2c(Oc3cccc(C(F)(F)F)c3)c(OC)cc(NC(C)CCCN)c2n1 (centres unmarked) [Tafenoquine] | 6.11 | – | 2.16 | – | 1.42 | 17.9 | 0.27 | IC50 (in vitro; [12]): 5.52 µM; IC50 at 96 h [3, 13]: 6.47 µM; selectivity ratio (P. falciparum strain K1; Selectivity index: IC50 Cytotoxicity L6/ IC50 P. falciparum): 20
9 | CC(C)c1nc(CN(C)C(=O)N[C@H](C(=O)N[C@@H](Cc2ccccc2)C[C@H](O)[C@H](Cc2ccccc2)NC(=O)OCc2cncs2)C(C)C)cs1 [Ritonavir] | 20.7 | – | > 41.6 | – | 4.3 | 8.97 | 16.2 | –
10 | CN(C)CCC=C1c2ccccc2CCc2ccccc21 [Amitriptyline] | 35.1 | – | > 10.8 | 36.1 | 3.03 | 131 | 1.16 | IC50 (in vitro): 42.2 µM; selectivity ratio ([4]; Selectivity index: IC50 Cytotoxicity L6/ IC50 T. b. rhodesiense): 14; Activity against P. falciparum (in words) (P. falciparum strain K1): micromolar range
11 | CN/C(=N/CCSCc1nc[nH]c1C)NC#N [Cimetidine] | 351 | 302 | > 119 | > 119 | > 396 | > 396 | 29.2 | –
12 | CSc1ccc2c(c1)N(CCC1CCCCN1C)c1ccccc1S2 (centres unmarked) [Thioridazine] | – | 5.39 | – | – | – | – | – | MCC at 96 h [3, 11]: 25.8 µM
13 | COC1=CC(=O)C[C@@H](C)[C@]12Oc1c(Cl)c(OC)cc(OC)c1C2=O [Griseofulvin] | – | – | – | – | – | – | – | IC50 ([1]; read-out: T. cruzi IC50): 87.3 µM; IC50 (in vitro; Cytotox. L6 IC50): 20.5 µM; IC50 [2, 10]: > 85 µM; IC50 at 96 h [3, 11]: > 85 µM; IC50 ([4]; read-out: T. b. rhod. IC50): 40 µM; IC50 ([5]; L. donovani axenic amastigotes, read-out: L. don. axen. IC50): 87 µM; IC50 (P. falciparum strain K1; Plasmodium falciparum, K1, read-out: P. falc. IC50): 75.1 µM
14 | Cc1c(O)cccc1C(=O)N[C@@H](CSc1ccccc1)[C@H](O)CN1C[C@H]2CCCC[C@H]2C[C@H]1C(=O)NC(C)(C)C [Nelfinavir] | 10.2 | 12.1 | 20.2 | > 52.8 | 20.6 | 9.62 | 10.4 | –
15 | O=C(Cn1ccnc1[N+](=O)[O-])NCc1ccccc1 [Benznidazole] | 1.99 | – | – | – | – | – | – | –
16 | CCCSc1ccc2nc(NC(=O)OC)[nH]c2c1 [Albendazole] | 12.3 | – | > 3.77 | – | 14.7 | > 113 | – | IC50 (in vitro): 0.41 µM
17 | CN(C)CCCN1c2ccccc2CCc2ccc(Cl)cc21 [Clomipramine] | – | 19.8 | – | 31.8 | – | – | – | –
18 | CNCCC(Oc1ccc(C(F)(F)F)cc1)c1ccccc1 (centres unmarked) [Fluoxetine] | – | 15 | – | – | – | – | – | MCC at 96 h [3, 7]: 32.3 µM; Activity against P. falciparum (in words) (P. falciparum strain K1): micromolar range
19 | Nc1nc(N)nc(Nc2ccc([As]3SCC(CO)S3)cc2)n1 (centres unmarked) [Melarsoprol] | – | – | – | – | 0.01 | – | – | –
20 | Cn1c([N+](=O)[O-])cnc1N1CCN(S(C)(=O)=O)C1=O [Satranidazole] | 19.1 | – | > 104 | – | 18.7 | 10.4 | – | IC50 (in vitro; [12]): > 311 µM; IC50 at 96 h [3, 13]: > 104 µM
21 | CCC(C)n1ncn(-c2ccc(N3CCN(c4ccc(OCC5COC(Cn6cncn6)(c6ccc(Cl)cc6Cl)O5)cc4)CC3)cc2)c1=O (centres unmarked) [Itraconazole] | 0.004 | 1.11 | > 1.42 | – | 8.53 | 2.42 | 1.37 | –
22 | Clc1ccc2c(c1)C(N1CCNCC1)=Nc1ccccc1O2 [Amoxapine] | – | 16.2 | – | 31.9 | – | – | – | –
23 | CCN(CC)CCOc1ccc(C(=C(Cl)c2ccccc2)c2ccccc2)cc1 [Clomiphene] | – | – | – | – | – | – | – | IC50 (in vitro; Cytotox. L6 IC50): 13.1 µM; MCC at 96 h [3, 11]: 24.6 µM
24 | CCS(=O)(=O)CCn1c([N+](=O)[O-])cnc1C [Tinidazole] | > 81 | > 243 | > 81 | > 81 | 16.6 | > 81 | – | Activity against T. b. rhodesiense (in words) ([4]; in vitro): inactive
25 | CCCCCCCCCCCCCCCCOP(=O)([O-])OCC[N+](C)(C)C [Miltefosine] | – | – | 1.21 | – | – | – | – | –
26 | Cc1ncc([N+](=O)[O-])n1CC(O)CCl (centres unmarked) [Ornidazole] | 130 | > 408 | > 136 | > 136 | 25.9 | > 136 | – | –
27 | Cc1ncc([N+](=O)[O-])n1CC(C)O (centres unmarked) [Secnidazole] | > 161 | > 483 | > 161 | > 161 | 28.7 | > 161 | – | –
